We go through 2 molecules from US11814681B2 (priority 2017, dated 2023).

Several values for one entry are separate records, joined by “and”; a condition that tells them apart may be missing. Equal values may be shown once.

For data set [1] the following is noted: in vivo; cited from earlier work.
The conditions of data set [2]: human, in vivo.
For data set [3] the following is noted: human, in vivo. The source holds these as a separate data set.
Data set [4] relates to patients (Met allele carriers, Val/Val). The arrangement: species or system human. The note with it: in vivo.
The test system is the same in data set [5]. The note with it: in vivo; cited from earlier work.
In data set [6] the test system is schizophrenia patients. The conditions noted are these: human, in vivo.
For data set [7] the following is noted: human, in vivo. The source holds these as a separate data set.

As to `CCO` [Ethanol], the “effect on circulating proline levels” value in data set [1] is on record as “increases”.
For `CCCC(CCC)C(=O)O` [VPA, 2-propylpentanoic acid], the “effect on circulating proline” value in data set [1] was “upregulates”. Further, in data set [2], the “fasting L-serine level” value turned out to be 117 µM and the fasting glycine level was found to be 361 µM. The “fasting plasma proline, mean ± SD” value in data set [3] was determined as 299.29±94.76. Besides, in data set [4], the “patients showing improvement in negative symptoms after treatment onset” value is 2 out of 9 and 5 out of 7. Moreover, in data set [5], the “blood level considered the lower end of the therapeutic range” value is 50 µg/mL. In addition, in data set [6], the “difference in SANS total score, Val/Val versus Val/Met and Met/Met (regression coefficient)” value is on record as −12.17; the “β (95% CI), bivariate association of treatment with total SANS score” value is −0.578 (−7.157, 6.001). Moreover, the “fasting plasma proline versus patients who did not receive the drug” value in data set [7] was “significantly higher”.
